Columns and labels:
[1] = mn = molality of the nth substance listed, in mol/kg; conditions: 101 kPa, Liquid; for speed of sound: Sing-around technique in a fixed-path interferometer; for mass density: Vibrating tube method
[2] = osmotic coefficient (dimensionless); mn = molality of the nth substance listed, in mol/kg; conditions: 323.15 K, Liquid, Knauer Osmometer

CCCCn1cc[n+](C)c1.O=S(=O)([O-])C(F)(F)F [1-butyl-3-methylimidazolium trifluoromethanesulfonate] + CCC(C)O
[1]
Conditions	mass density, 293.15 K [kg/m3]	mass density, 308.15 K [kg/m3]	mass density, 323.15 K [kg/m3]	speed of sound, 293.15 K [m/s]	speed of sound, 308.15 K [m/s]	speed of sound, 323.15 K [m/s]
m1 = 0.098	815.49	802.94	789.53	1231	1177.6	1122.9
m1 = 0.149	819.88	807.37	794.01	1231.4	1178.3	1124.1
m1 = 0.201	824.3	811.78	798.46	1231.9	1179.2	1125.5
m1 = 0.249	828.21	815.73	802.45	1232	1179.6	1126.3
m1 = 0.498	847.84	835.4	822.26	1233.7	1182.7	1130.8
m1 = 1.002	882.87	870.47	857.52	1238.2	1189.5	1140.3
m1 = 1.239	897.53	885.16	872.26	1240.2	1192.4	1144
m1 = 1.522	913.81	901.44	888.61	1243.1	1196.2	1148.8
m1 = 1.763	926.62	914.26	901.49	1245.6	1199.4	1152.7
m1 = 2.497	961.11	948.77	936.11	1253.6	1209.2	1164.3
m1 = 2.935	978.86	966.54	953.94	1258.2	1214.5	1170.8

[2]
Conditions	osmotic coefficient
m1 = 0.0481	0.914
m1 = 0.0784	0.806
m1 = 0.1008	0.771
m1 = 0.2021	0.657
m1 = 0.2917	0.568
m1 = 0.3846	0.507
m1 = 0.485	0.472
m1 = 0.7679	0.428
m1 = 1.126	0.379
m1 = 1.523	0.334
m1 = 1.909	0.318
m1 = 2.282	0.31
m1 = 2.574	0.296
m1 = 2.994	0.279
m1 = 3.448	0.275

CCCCn1cc[n+](C)c1.O=S(=O)([O-])C(F)(F)F [1-butyl-3-methylimidazolium trifluoromethanesulfonate] + CC(C)O
[1]
Conditions	mass density, 293.15 K [kg/m3]	mass density, 308.15 K [kg/m3]	mass density, 323.15 K [kg/m3]	speed of sound, 293.15 K [m/s]	speed of sound, 308.15 K [m/s]	speed of sound, 323.15 K [m/s]
m1 = 0.049	789.81	777.07	763.51	1158.3	1106.4	1053.4
m1 = 0.1	794.52	781.8	768.29	1159.5	1108	1055.5
m1 = 0.152	799.18	786.48	772.99	1160.9	1109.6	1057.4
m1 = 0.207	804.09	791.39	777.93	1162.6	1111.2	1059.3
m1 = 0.254	808.1	795.41	781.98	1163.3	1112.5	1060.8
m1 = 0.51	828.98	816.33	803.01	1168.6	1119.1	1068.8
m1 = 0.754	847.24	834.61	821.37	1173.2	1124.8	1075.6
m1 = 1.006	864.73	852.1	838.92	1178.4	1130.5	1082.3
m1 = 1.525	896.77	884.17	871.1	1188.1	1142	1095.6
m1 = 1.758	910.13	897.53	884.5	1192.5	1147	1101.3
m1 = 2.05	925.34	912.77	899.8	1197.6	1153.1	1108.2
m1 = 2.526	947.75	935.19	922.28	1206	1162.5	1118.6
m1 = 3.011	967.97	955.42	942.57	1214.3	1171.5	1128.5

[2]
Conditions	osmotic coefficient
m1 = 0.0255	0.991
m1 = 0.0473	0.911
m1 = 0.1132	0.844
m1 = 0.1803	0.765
m1 = 0.2949	0.686
m1 = 0.398	0.624
m1 = 0.5052	0.588
m1 = 0.8092	0.518
m1 = 1.205	0.461
m1 = 1.615	0.412
m1 = 2.031	0.391
m1 = 2.42	0.381
m1 = 2.829	0.366
m1 = 3.326	0.356

CCCCn1cc[n+](C)c1.O=S(=O)([O-])C(F)(F)F [1-butyl-3-methylimidazolium trifluoromethanesulfonate] + CCCO
[1]
Conditions	mass density, 293.15 K [kg/m3]	mass density, 308.15 K [kg/m3]	mass density, 323.15 K [kg/m3]	speed of sound, 293.15 K [m/s]	speed of sound, 308.15 K [m/s]	speed of sound, 323.15 K [m/s]
m1 = 0.05	808.59	796.51	784.03	1225.2	1174.1	1123.8
m1 = 0.101	813.12	801.04	788.57	1225.9	1175.1	1125.1
m1 = 0.15	817.38	805.31	792.86	1226.2	1176	1126.3
m1 = 0.2	821.64	809.57	797.12	1226.7	1176.8	1127.3
m1 = 0.25	825.82	813.75	801.31	1227.4	1177.6	1128.4
m1 = 0.758	864.71	852.6	840.18	1232.4	1184.8	1137.7
m1 = 1.004	881.36	869.23	856.81	1235	1188.2	1141.9
m1 = 1.258	897.18	885.04	872.62	1237.6	1191.7	1146.2
m1 = 1.524	912.6	900.41	887.99	1241.2	1195.4	1150.5
m1 = 1.771	925.96	913.75	901.33	1243.6	1198.7	1154.5
m1 = 2.021	938.44	926.22	913.81	1246.4	1202	1158.4
m1 = 2.517	960.93	948.73	936.31	1251.9	1208.4	1165.7
m1 = 3.011	981.02	968.77	956.37	1257.1	1214.8	1172.9

[2]
Conditions	osmotic coefficient
m1 = 0.0299	0.906
m1 = 0.0473	0.817
m1 = 0.0849	0.775
m1 = 0.0975	0.755
m1 = 0.2019	0.66
m1 = 0.2968	0.612
m1 = 0.4022	0.575
m1 = 0.5062	0.549
m1 = 0.8045	0.494
m1 = 1.206	0.445
m1 = 1.64	0.412
m1 = 2.044	0.39
m1 = 2.44	0.378
m1 = 2.829	0.361
m1 = 3.316	0.34

CCCCn1cc[n+](C)c1.O=S(=O)([O-])C(F)(F)F [1-butyl-3-methylimidazolium trifluoromethanesulfonate] + CCCCO
[1]
Conditions	mass density, 293.15 K [kg/m3]	mass density, 308.15 K [kg/m3]	mass density, 323.15 K [kg/m3]	speed of sound, 293.15 K [m/s]	speed of sound, 308.15 K [m/s]	speed of sound, 323.15 K [m/s]
m1 = 0.052	814.31	802.84	790.99	1257.8	1207.6	1158.1
m1 = 0.101	818.63	807.15	795.31	1258	1208	1158.8
m1 = 0.153	823.08	811.61	799.78	1257.7	1208.3	1159.4
m1 = 0.206	827.53	816.05	804.22	1257.9	1208.8	1160.1
m1 = 0.25	831.16	819.67	807.85	1258	1209.1	1160.6
m1 = 0.504	851.11	839.58	827.75	1258	1210.5	1163.2
m1 = 0.756	869.28	857.7	845.85	1259.2	1212.1	1165.7
m1 = 1.009	886.03	874.41	862.55	1260.2	1213.9	1168.4
m1 = 1.262	901.54	889.89	878.01	1261	1215.8	1171
m1 = 1.508	915.57	903.89	892	1262.4	1217.9	1173.7
m1 = 1.758	928.83	917.11	905.21	1263.9	1219.9	1176.4
m1 = 1.989	940.32	928.56	916.64	1265.8	1222	1179
m1 = 2.486	962.85	951.04	939.1	1269.5	1226.6	1184.5
m1 = 2.979	982.55	970.73	958.77	1273.1	1231.2	1189.8

[2]
Conditions	osmotic coefficient
m1 = 0.0481	0.84
m1 = 0.1053	0.618
m1 = 0.2108	0.512
m1 = 0.3131	0.457
m1 = 0.4049	0.425
m1 = 0.4947	0.403
m1 = 0.8149	0.36
m1 = 1.216	0.323
m1 = 1.613	0.301
m1 = 2.036	0.28
m1 = 2.425	0.268
m1 = 2.82	0.27
m1 = 3.311	0.259

CCCCn1cc[n+](C)c1.O=S(=O)([O-])C(F)(F)F [1-butyl-3-methylimidazolium trifluoromethanesulfonate] + CCCCCO
[1]
Conditions	mass density, 293.15 K [kg/m3]	mass density, 308.15 K [kg/m3]	mass density, 323.15 K [kg/m3]	speed of sound, 293.15 K [m/s]	speed of sound, 308.15 K [m/s]	speed of sound, 323.15 K [m/s]
m1 = 0.048	818.89	807.86	796.5	1292.6	1242.7	1193.2
m1 = 0.103	823.68	812.65	801.3	1292.3	1242.7	1193.6
m1 = 0.203	832.08	821.04	809.68	1291.9	1242.7	1194.1
m1 = 0.246	835.58	824.54	813.18	1291.4	1242.6	1194.1
m1 = 0.746	872.74	861.58	850.17	1289	1242	1195.6
m1 = 1.014	890.36	879.13	867.69	1288.5	1242.2	1196.7
m1 = 1.517	919.71	908.4	896.89	1288.2	1243.4	1199.3
m1 = 1.778	933.35	921.98	910.45	1288.6	1244.5	1201
m1 = 2.024	945.34	933.93	922.38	1289.4	1245.7	1202.7
m1 = 2.477	965.54	954.08	942.49	1290.7	1248.1	1205.9
m1 = 2.963	984.77	973.25	961.63	1292.8	1250.8	1209.4

[2]
Conditions	osmotic coefficient
m1 = 0.0505	0.619
m1 = 0.0795	0.565
m1 = 0.1004	0.529
m1 = 0.2014	0.436
m1 = 0.3014	0.402
m1 = 0.406	0.365
m1 = 0.5071	0.344
m1 = 0.8272	0.299
m1 = 1.233	0.242
m1 = 1.649	0.224
m1 = 2.044	0.202
m1 = 2.446	0.183
m1 = 2.837	0.184
m1 = 3.34	0.184
